Reference: patent US20250171438A1 (Agios Pharmaceuticals, Inc., priority 2022, published 2025)

target: T1, human PAH with the R408W mutation (Homo sapiens, UniProt P00439, R408W); assay: Cell Based Phenylalanine Flux Assay; parameters: scale not given here; conditions: A375 cells expressing human R408W PAH; 24 hrs with compound; 13C-Tyrosine by LC-MS; average where tested multiple times
T1 construct: expressed in transfected cells
T1 sequence (P00439 1-452 R408W): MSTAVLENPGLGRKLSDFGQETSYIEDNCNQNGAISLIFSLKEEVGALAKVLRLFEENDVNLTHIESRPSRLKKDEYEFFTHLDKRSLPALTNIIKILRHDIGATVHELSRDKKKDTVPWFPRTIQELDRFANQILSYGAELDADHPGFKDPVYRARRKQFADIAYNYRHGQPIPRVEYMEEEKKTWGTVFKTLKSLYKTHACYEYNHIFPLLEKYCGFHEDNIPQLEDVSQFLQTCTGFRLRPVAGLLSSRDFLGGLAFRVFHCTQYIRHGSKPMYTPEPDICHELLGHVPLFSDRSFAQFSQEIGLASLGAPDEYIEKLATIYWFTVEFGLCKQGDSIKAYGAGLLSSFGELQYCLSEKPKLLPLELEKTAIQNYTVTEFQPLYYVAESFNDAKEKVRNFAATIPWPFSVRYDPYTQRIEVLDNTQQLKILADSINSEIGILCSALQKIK

SMILES	AC50
O=C(c1oc(-c2ccccn2)nc1C(F)(F)F)N1CCc2[nH]cnc2[C@@H]1c1nc2ccccc2s1 (single isomer, unassigned)	E, E
Cn1cc(-c2nc(C(F)(F)F)c(C(=O)N3CCc4[nH]cnc4[C@@H]3c3nc4ccccc4s3)o2)cn1 (single isomer, unassigned)	E, E
COCc1ccc2c(C(=O)N3CCc4[nH]cnc4[C@@H]3c3nc4ccccc4s3)c(C(F)F)nn2c1 (single isomer, unassigned)	E, E
O=C(c1c(C(F)(F)F)nn2ccccc12)N1CCc2[nH]cnc2[C@H]1c1nc2ccccc2s1 (single isomer, unassigned)	E, E
NC(=O)c1nc(-c2ccccn2)oc1C(=O)N1CCc2[nH]cnc2[C@H]1c1nc2ccccc2s1 (single isomer, unassigned)	E, E

same assay, conditions: A375 cells expressing human R408W PAH; 24 hrs with compound; 13C-Tyrosine by LC-MS; average where tested multiple times; read-out: AC50

SMILES	AC50
O=C(CCc1nccs1)N1CCc2[nH]cnc2C1c1nc2ccc(Br)cc2s1 (stereo not drawn)	1 to 5 µM
Nc1cnc(N2CCc3[nH]cnc3C2c2nc3ccccc3s2)nc1 (stereo not drawn)	1 to 5 µM
O=C(c1cnc(C2CCC(F)(F)CC2)s1)N1CCc2[nH]cnc2C1c1nc2ccccc2s1 (stereo not drawn)	0.5 to 1 µM
O=C(c1oc(-c2ccccn2)nc1-c1ccccc1)N1CCc2[nH]cnc2C1c1nc2ccccc2s1 (stereo not drawn)	1 to 5 µM
Cn1ncc(C(=O)N2CCc3[nH]cnc3C2c2nc3c(F)cccc3s2)c1N (stereo not drawn)	> 5 µM
O=C(c1cnco1)N1CCc2[nH]cnc2C1c1nc2c(F)cccc2s1 (stereo not drawn)	1 to 5 µM
CC(C)(O)c1cc(C(=O)N2CCc3[nH]cnc3C2c2nc3ccccc3s2)on1 (stereo not drawn) [listing 1 of 2 here]	> 5 µM
CC(C)(O)c1noc(C(=O)N2CCc3[nH]cnc3C2c2nc3ccccc3s2)n1 (stereo not drawn) [listing 1 of 2 here]	> 5 µM
CC(C)(O)c1nc(C(=O)N2CCc3[nH]cnc3C2c2nc3ccccc3s2)no1 (stereo not drawn)	1 to 5 µM
O=C(c1cnco1)N1CCc2[nH]cnc2C1c1nc2c(C(F)(F)F)cccc2s1 (stereo not drawn)	1 to 5 µM
Cn1nc(C2CC2)cc1C(=O)N1CCc2[nH]cnc2C1c1nc2c(F)cccc2s1 (stereo not drawn)	1 to 5 µM
CC(C)(O)c1noc(C(=O)N2CCc3[nH]cnc3C2c2nc3ccccc3s2)n1 (stereo not drawn) [listing 2 of 2 here]	1 to 5 µM
CC(C)(O)c1cc(C(=O)N2CCc3[nH]cnc3C2c2nc3ccccc3s2)on1 (stereo not drawn) [listing 2 of 2 here]	1 to 5 µM
Cn1ncnc1C(=O)N1CCc2[nH]cnc2C1c1nc2c(F)cccc2s1 (stereo not drawn)	1 to 5 µM
Cc1nnc(C(=O)N2CC(C)c3[nH]cnc3C2c2nc3ccccc3s2)o1 (stereo not drawn) [listing 1 of 3 here]	> 5 µM
CC1CN(C(=O)c2nnc(C(C)(C)O)o2)C(c2nc3ccccc3s2)c2nc[nH]c21 (stereo not drawn) [listing 1 of 4 here]	> 5 µM
Cc1nc(C(C)(C)O)oc1C(=O)N1CC(C)c2[nH]cnc2C1c1nc2c(F)cccc2s1 (stereo not drawn) [listing 1 of 4 here]	> 5 µM
CC1CN(C(=O)c2cnc(N3CCOCC3)o2)C(c2nc3ccccc3s2)c2nc[nH]c21 (stereo not drawn) [listing 1 of 4 here]	1 to 5 µM
Cc1nc(-c2ccccn2)oc1C(=O)N1CC(C)c2[nH]cnc2C1c1nc2ccccc2s1 (stereo not drawn) [listing 1 of 3 here]	> 5 µM
CC1CN(C(=O)c2cnco2)C(c2nc3c(F)cccc3s2)c2nc[nH]c21 (stereo not drawn) [listing 1 of 4 here]	> 5 µM
CC1CN(C(=O)c2cnn3cc(CN(C)C)ccc23)C(c2nc3ccccc3s2)c2nc[nH]c21 (stereo not drawn) [listing 1 of 3 here]	> 5 µM
Cc1nnc(C(=O)N2CC(C)c3[nH]cnc3C2c2nc3ccccc3s2)o1 (stereo not drawn) [listing 2 of 3 here]	> 5 µM
CC1CN(C(=O)c2nnc(C(C)(C)O)o2)C(c2nc3ccccc3s2)c2nc[nH]c21 (stereo not drawn) [listing 2 of 4 here]	> 5 µM

SMILES	AC50
Cc1nc(C(C)(C)O)oc1C(=O)N1CC(C)c2[nH]cnc2C1c1nc2c(F)cccc2s1 (stereo not drawn) [listing 2 of 4 here]	> 5 µM
CC1CN(C(=O)c2cnc(N3CCOCC3)o2)C(c2nc3ccccc3s2)c2nc[nH]c21 (stereo not drawn) [listing 2 of 4 here]	> 5 µM
CC1CN(C(=O)c2cnco2)C(c2nc3c(F)cccc3s2)c2nc[nH]c21 (stereo not drawn) [listing 2 of 4 here]	> 5 µM
COCCc1ncc(C(=O)N2CC(C)c3[nH]cnc3C2c2nc3ccccc3s2)o1 (stereo not drawn)	1 to 5 µM
CC1CN(C(=O)c2nnc(C(C)(C)O)o2)C(c2nc3ccccc3s2)c2nc[nH]c21 (stereo not drawn) [listing 3 of 4 here]	1 to 5 µM
Cc1nc(C(C)(C)O)oc1C(=O)N1CC(C)c2[nH]cnc2C1c1nc2c(F)cccc2s1 (stereo not drawn) [listing 3 of 4 here]	1 to 5 µM
CC1CN(C(=O)c2cnc(N3CCOCC3)o2)C(c2nc3ccccc3s2)c2nc[nH]c21 (stereo not drawn) [listing 3 of 4 here]	1 to 5 µM
Cc1nc(-c2ccccn2)oc1C(=O)N1CC(C)c2[nH]cnc2C1c1nc2ccccc2s1 (stereo not drawn) [listing 2 of 3 here]	1 to 5 µM
CC1CN(C(=O)c2cnco2)C(c2nc3c(F)cccc3s2)c2nc[nH]c21 (stereo not drawn) [listing 3 of 4 here]	1 to 5 µM
CC1CN(C(=O)c2cnn3cc(CN(C)C)ccc23)C(c2nc3ccccc3s2)c2nc[nH]c21 (stereo not drawn) [listing 2 of 3 here]	1 to 5 µM
CC1CN(C(=O)c2cnc(CN(C)C)o2)C(c2nc3ccccc3s2)c2nc[nH]c21 (stereo not drawn)	> 5 µM
Cc1nnc(C(=O)N2CC(C)c3[nH]cnc3C2c2nc3ccccc3s2)o1 (stereo not drawn) [listing 3 of 3 here]	1 to 5 µM
CC1CN(C(=O)c2nnc(C(C)(C)O)o2)C(c2nc3ccccc3s2)c2nc[nH]c21 (stereo not drawn) [listing 4 of 4 here]	1 to 5 µM
Cc1nc(C(C)(C)O)oc1C(=O)N1CC(C)c2[nH]cnc2C1c1nc2c(F)cccc2s1 (stereo not drawn) [listing 4 of 4 here]	1 to 5 µM
CC1CN(C(=O)c2cnc(N3CCOCC3)o2)C(c2nc3ccccc3s2)c2nc[nH]c21 (stereo not drawn) [listing 4 of 4 here]	1 to 5 µM
Cc1nc(-c2ccccn2)oc1C(=O)N1CC(C)c2[nH]cnc2C1c1nc2ccccc2s1 (stereo not drawn) [listing 3 of 3 here]	1 to 5 µM
CC1CN(C(=O)c2cnco2)C(c2nc3c(F)cccc3s2)c2nc[nH]c21 (stereo not drawn) [listing 4 of 4 here]	> 5 µM
CC1CN(C(=O)c2cnn3cc(CN(C)C)ccc23)C(c2nc3ccccc3s2)c2nc[nH]c21 (stereo not drawn) [listing 3 of 3 here]	> 5 µM
O=C(Cc1cnco1)N1CCc2[nH]cnc2[C@@H]1c1nc2ccccc2s1 (single isomer, unassigned)	> 5 µM
Cc1nnc(CC(=O)N2CCc3[nH]cnc3[C@@H]2c2nc3c(F)cccc3s2)s1 (single isomer, unassigned)	> 5 µM
O=C(Cc1nccs1)N1CCc2[nH]cnc2[C@@H]1c1nc2ccc(Br)cc2[nH]1 (single isomer, unassigned)	> 5 µM
COCCNc1nnc(C(=O)N2CCc3[nH]cnc3[C@@H]2c2nc3ccccc3s2)o1 (single isomer, unassigned)	> 5 µM
O=C(c1cnco1)N1CCc2[nH]cnc2[C@@H]1c1nc2cc(F)ccc2s1 (single isomer, unassigned)	> 5 µM

SMILES	AC50
O=C(c1ncn2ccccc12)N1CCc2[nH]cnc2[C@@H]1c1nc2ccc(F)cc2s1 (single isomer, unassigned)	> 5 µM
O=C(c1cnn2c(Br)cccc12)N1CCc2[nH]cnc2[C@@H]1c1nc2ccccc2[nH]1 (single isomer, unassigned)	> 5 µM
O=C(c1nccs1)N1CCc2[nH]cnc2[C@@H]1c1nc2ccc(Cl)cc2[nH]1 (single isomer, unassigned)	> 5 µM
Cc1nnc(CC(=O)N2CCc3[nH]cnc3[C@H]2c2nc3ccccc3[nH]2)o1 (single isomer, unassigned)	> 5 µM
Cc1nnc(CC(=O)N2CCc3[nH]cnc3[C@H]2c2nc3ccccc3s2)s1 (single isomer, unassigned)	1 to 5 µM
CC(=O)N1CCc2[nH]cnc2[C@H]1c1nc2ccccc2s1 (single isomer, unassigned)	1 to 5 µM
O=C(Cc1cscn1)N1CCc2[nH]cnc2[C@H]1c1nc2ccccc2s1 (single isomer, unassigned)	1 to 5 µM
O=C(Cc1nncs1)N1CCc2[nH]cnc2[C@H]1c1nc2c(F)cccc2s1 (single isomer, unassigned)	1 to 5 µM
O=C(CCc1nccs1)N1CCc2[nH]cnc2[C@H]1c1nc2cccc(F)c2[nH]1 (single isomer, unassigned)	1 to 5 µM
Cc1nnc(N2CCc3[nH]cnc3[C@H]2c2nc3ccccc3[nH]2)o1 (single isomer, unassigned)	1 to 5 µM
Cn1cc(-c2cccc(C(=O)N3CCc4[nH]cnc4[C@H]3c3nc4ccccc4s3)c2)cn1 (single isomer, unassigned)	1 to 5 µM
O=C(N1CC[C@@H](c2ccccc2)C1)N1CCc2[nH]cnc2[C@H]1c1nc2ccccc2s1 (single isomer, unassigned)	1 to 5 µM
c1ccc2sc([C@@H]3c4nc[nH]c4CCN3CC3CC3)nc2c1 (single isomer, unassigned)	1 to 5 µM
O=C(c1cc2ccccn2c1)N1CCc2[nH]cnc2[C@H]1c1nc2ccccc2s1 (single isomer, unassigned)	1 to 5 µM
Cc1ncc(C(=O)N2CCc3[nH]cnc3[C@H]2c2nc3c(F)cccc3s2)o1 (single isomer, unassigned)	1 to 5 µM
O=C(c1cnn2cccc(F)c12)N1CCc2[nH]cnc2[C@H]1c1nc2cc(F)ccc2s1 (single isomer, unassigned)	1 to 5 µM
O=C(c1nccs1)N1CCc2[nH]cnc2[C@H]1c1nc2ccc(Cl)cc2s1 (single isomer, unassigned)	1 to 5 µM
O=C(c1cnn2ccccc12)N1CCc2[nH]cnc2[C@H]1c1nc2ccc(Cl)cc2s1 (single isomer, unassigned)	1 to 5 µM
O=C(c1nncs1)N1CCc2[nH]cnc2[C@H]1c1nc2ccccc2[nH]1 (single isomer, unassigned)	1 to 5 µM
Cc1nnc(C(=O)N2CCc3[nH]cnc3[C@H]2c2nc3cc(Br)ccc3[nH]2)s1 (single isomer, unassigned)	1 to 5 µM
O=C(c1cnn2cc(Cl)ccc12)N1CCc2[nH]cnc2[C@H]1c1nc2ccc(Br)cc2[nH]1 (single isomer, unassigned)	1 to 5 µM
O=C(c1nccs1)N1CCc2[nH]cnc2[C@H]1c1nc2ccc(F)cc2[nH]1 (single isomer, unassigned)	1 to 5 µM

same assay, conditions: AC50, A375 cells expressing human R408W PAH; 24 hrs with compound; 13C-Tyrosine by LC-MS; average where tested multiple times

SMILES	AC50
Cc1nnc(C(=O)N2CCc3[nH]cnc3C2c2nc3ccc(Cl)cc3[nH]2)s1 (stereo not drawn) [listing 1 of 2 here]	> 5 µM
Cc1nnc(C(=O)N2CCc3[nH]cnc3C2c2nc3ccc(Cl)cc3[nH]2)s1 (stereo not drawn) [listing 2 of 2 here]	1 to 5 µM
